{"source": "ChEMBL document CHEMBL1158189", "about": "“New taxane diterpenoids from the roots of Taxus mairei” (J Nat Prod, 1996)", "format_in_all_cases": "functional, cell-based", "key": {"HT-29": {"system": "HT-29", "test": "Cytotoxicity against human HT29 cells after 72 hrs", "details": "HT-29, 72 h"}, "[1]": {"test": "Cytotoxicity against human KB16 cells after 72 hrs", "details": "KB16, 72 h"}, "A549": {"system": "A549", "test": "Cytotoxicity against human A549 cells after 72 hrs", "details": "A549, 72 h"}, "P388": {"system": "P388", "test": "Cytotoxicity against mouse P388 cells after 72 hrs", "details": "P388, 72 h"}}, "data": [{"smiles": "CC(=O)O[C@H]1C[C@H]2[C@@H](OC(=O)c3ccccc3)[C@@H]3[C@](O)(CO)[C@@H](OC(C)=O)C[C@H](OC(C)=O)[C@@]3(C)[C@@H](OC(C)=O)[C@H](OC(C)=O)C(=C1C)C2(C)C", "values": [{"measurement": "IC50", "setting": "HT-29", "result": 1.4, "unit": "µg/mL"}, {"measurement": "IC50", "setting": "[1]", "result": 1, "unit": "µg/mL"}, {"measurement": "IC50", "setting": "A549", "result": 4.8, "unit": "µg/mL"}, {"measurement": "IC50", "setting": "P388", "result": 2.4, "unit": "µg/mL"}]}, {"smiles": "CC(=O)O[C@H]1C[C@H]2[C@@H](O)[C@@H]3[C@](O)(COC(=O)c4ccccc4)[C@@H](OC(C)=O)C[C@H](OC(C)=O)[C@@]3(C)[C@@H](OC(C)=O)[C@H](OC(C)=O)C(=C1C)C2(C)C", "note": "[TAXUMAIROL A]", "values": [{"measurement": "IC50", "setting": "HT-29", "result": 1, "unit": "µg/mL"}, {"measurement": "IC50", "setting": "[1]", "result": 0.4, "unit": "µg/mL"}, {"measurement": "IC50", "setting": "A549", "result": 1.7, "unit": "µg/mL"}, {"measurement": "IC50", "setting": "P388", "result": 0.05, "unit": "µg/mL"}]}, {"smiles": "CC(=O)O[C@H]1C[C@@]2(O)[C@@H](OC(C)=O)[C@@H]3[C@@]4(CO4)[C@@H](OC(C)=O)C[C@H](O)[C@@]3(C)[C@@H](O)[C@H](OC(C)=O)C(=C1C)C2(C)C", "note": "[TAXUMAIROL B]", "values": [{"measurement": "IC50", "setting": "HT-29", "result": "> 50", "unit": "µg/mL"}, {"measurement": "IC50", "setting": "[1]", "result": 1.4, "unit": "µg/mL"}, {"measurement": "IC50", "setting": "A549", "result": "> 50", "unit": "µg/mL"}, {"measurement": "IC50", "setting": "P388", "result": "> 50", "unit": "µg/mL"}]}]}
